Laboratory results from US10844062B2, “Pyridine derivative inhibiting RAF kinase and vascular endothelial growth factor receptor, method for preparing same, pharmaceutical composition containing same, and use thereof” (SAMJIN PHARMACEUTICAL CO., LTD., priority 2016, dated 2020).
Where two headings read alike, the source gives them in different places.

Legend:
B-Raf = B-Raf (Homo sapiens (Human), UniProt P15056); assay: Raf kinase inhibitory activity (Raf/MEK1/MAPK2 cascade, MBP phosphorylation, 32P); format: biochemical
Chain of B-Raf (P15056 whole entry): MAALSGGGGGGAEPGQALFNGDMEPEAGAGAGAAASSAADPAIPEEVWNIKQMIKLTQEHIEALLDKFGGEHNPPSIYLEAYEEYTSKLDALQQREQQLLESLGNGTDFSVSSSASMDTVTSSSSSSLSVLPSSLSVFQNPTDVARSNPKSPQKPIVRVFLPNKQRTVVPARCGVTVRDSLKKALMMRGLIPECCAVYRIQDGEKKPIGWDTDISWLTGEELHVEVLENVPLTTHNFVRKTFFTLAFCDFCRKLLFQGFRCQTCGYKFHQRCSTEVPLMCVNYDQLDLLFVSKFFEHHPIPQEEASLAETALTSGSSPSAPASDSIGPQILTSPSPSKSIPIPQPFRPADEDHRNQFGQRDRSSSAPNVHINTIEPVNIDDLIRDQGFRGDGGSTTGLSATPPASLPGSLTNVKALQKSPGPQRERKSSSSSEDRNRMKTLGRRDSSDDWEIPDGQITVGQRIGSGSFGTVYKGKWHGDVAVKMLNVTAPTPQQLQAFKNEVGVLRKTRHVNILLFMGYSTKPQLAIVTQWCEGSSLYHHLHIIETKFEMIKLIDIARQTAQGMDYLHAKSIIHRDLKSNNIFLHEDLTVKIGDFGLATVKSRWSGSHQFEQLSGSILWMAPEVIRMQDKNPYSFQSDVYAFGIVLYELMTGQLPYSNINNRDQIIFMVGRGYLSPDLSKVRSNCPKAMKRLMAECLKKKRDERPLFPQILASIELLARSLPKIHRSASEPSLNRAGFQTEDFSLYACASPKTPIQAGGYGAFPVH
Protocol: (§1) In order to examine the inhibitory activities of the compounds of the present invention against Raf kinases (B-Raf, C-Raf, B-Raf^V600E), the following experiment was performed.
(§2) (1) Consecutive Signal Transduction Reaction
(§3) To a centrifugation tube, 20 μl of a dilution solvent (20 mM MOPS, pH 7.2, 25 mM (3-glycerol phosphate, 5 mM EGTA, 1 mM sodium orthovanadate, 1 mM dithiothreitol) and 20 μl of a Mg/ATP mixture (500 μM ATP and 75 mM magnesium chloride) were added. Then, each of the derivative compounds of formula 1 was added. As a control, 1 ng of activated raf, 0.4 ng of inactivated MEK1 and 1 μg of inactivated MAPK2 were added without adding Example compounds. The solutions in the tube were concentrated at the bottom of the tube by centrifugation, and then allowed to react at 30° C. for 30 minutes, and 4 μl of the mixture solution was taken and used in the next experimental step.
(§4) (2) Phosphorylation of Substrate Protein MBP by MAPK2
(§5) To 4 μl of the mixture solution taken in (1), 10 μl of a dilution solvent, 20 μg of MBP as a substrate, and 10 μl of diluted [γ-32P]ATP (1 μCi/μL) were added. The solutions in the tube were concentrated at the bottom of the tube by centrifugation, and then allowed to react at 30° C. for 30 minutes. 25 μl of the reaction solution was carefully placed on the center of 2 cm×2 cm P81 filter paper for 30 seconds. Next, the filter paper was washed three times with 0.75% phosphoric acid solution for 10 minutes each time and washed once with acetone for 5 minutes. Next, the filter paper was transferred into a scintillation vial, and 5 ml of a scintillation cocktail was added thereto. Raf activity inhibition rate (IC50) was measured by reading the radioactivity with a scintillation counter in comparison with the control.

B-Raf V600E = B-Raf V600E (Homo sapiens (Human), UniProt P15056, V600E); assay: as above; format: biochemical
Chain of B-Raf V600E (P15056 whole entry V600E): as the sequence (P15056 whole entry) above, with V600E counted along it
Protocol: as §1, §2, §3, §4, §5

C-Raf = C-Raf (Homo sapiens (Human), UniProt P04049); assay: as above; format: biochemical
Chain of C-Raf (P04049 whole entry): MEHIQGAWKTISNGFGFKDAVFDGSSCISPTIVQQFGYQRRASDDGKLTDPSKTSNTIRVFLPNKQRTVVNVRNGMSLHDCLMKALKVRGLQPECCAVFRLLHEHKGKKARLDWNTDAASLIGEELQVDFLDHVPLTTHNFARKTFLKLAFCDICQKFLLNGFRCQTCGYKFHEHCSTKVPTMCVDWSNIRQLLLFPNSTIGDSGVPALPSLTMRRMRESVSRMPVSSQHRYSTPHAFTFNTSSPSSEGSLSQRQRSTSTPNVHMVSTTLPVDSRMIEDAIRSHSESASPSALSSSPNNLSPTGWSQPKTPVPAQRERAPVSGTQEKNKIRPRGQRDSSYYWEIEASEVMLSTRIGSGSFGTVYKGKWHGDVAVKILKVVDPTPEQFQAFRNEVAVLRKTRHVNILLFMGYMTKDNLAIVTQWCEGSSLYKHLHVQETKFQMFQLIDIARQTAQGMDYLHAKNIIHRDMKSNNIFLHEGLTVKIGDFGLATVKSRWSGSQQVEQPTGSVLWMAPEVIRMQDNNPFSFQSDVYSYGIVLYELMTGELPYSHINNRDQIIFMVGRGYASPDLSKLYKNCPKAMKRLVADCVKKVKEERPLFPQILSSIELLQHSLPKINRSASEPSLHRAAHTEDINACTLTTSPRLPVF
Protocol: as §1, §2, §3, §4, §5

[1] = test system: A-375P BRAF V600E (melanoma); assay: MTT assay; format: cell-based; conditions: A375P, 72 h; Table 5; 3 days incubation
Outline: (§6)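 Cells were seeded at line-dependent density and stabilised overnight at 37 °C, then exposed to compounds for 3 days at 37 °C. MTT was then added for 2 h and the formazan dissolved in DMSO.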

[2] = test system: HCT-116 KRAS G13D (colon); assay: MTT assay; format: cell-based; conditions: Homo sapiens, HCT-116, 72 h; Table 5; 3 days incubation; read-out: MTT assay IC50 KRAS mutant (Colon) HCT-116 KRAS G13D
Outline: as §6

HUVEC (VEGF) = assay: MTT assay; format: cell-based; conditions: Homo sapiens, 72 h, Table 5, 3 days incubation
Outline: as §6

LS513 KRAS G12V (colon) = assay: MTT assay; format: cell-based; conditions: Homo sapiens, LS-513, 72 h, 3 days incubation, read-out: MTT assay IC50 KRAS mutant (Colon) LS513 KRAS G12V
Outline: as §6

SW620 KRAS G12V (colon) = assay: MTT assay; format: cell-based; conditions: Homo sapiens, SW-620, 72 h; Table 5; 3 days incubation; read-out: MTT assay IC50 KRAS mutant (Colon) SW620 KRAS G12V
Outline: as §6

WiDR BRAF V600E (colon) = assay: MTT assay; format: cell-based; conditions: Homo sapiens, 72 h, Table 5, 3 days incubation, read-out: MTT assay IC50 BRAF mutant (Colon) WiDR BRAF V600E
Outline: as §6

[3] = test system: LS513 human colorectal cancer cell line xenograft; assay: Antitumor effect on human colorectal cancer LS513 cell line xenograft; format: in vivo, Balb/c nu/nu nude mice; conditions: oral, twice a day, 60 mg/kg or 30 mg/kg (dose not specified per compound), 14 days
Excerpt: In this experiment, 5 to 6-week-old female Balb/c nu/nu nude mice (weighed 18 to 20 g) were used. The mice were provided from Nara Biotech Co., Ltd. During the experiment, all the animals were housed on a mouse constant temperature/constant humidity shelf (Individually Ventilated Cages System, LAB & BIO).
Each cage (37.2 cm length×19.2 cm width×13.1 cm height) was sterilized with a sterilizer, and eight mice were received in each cage. The mice were maintained in a hygienic environment controlled to a temperature of 20 to 24° C. and a humidity of 40 to 70% with a 12-hr light/12-hr dark cycle. The mice were allowed to access sterilized feed and drinking water ad libitum. The care and treatment of these animals were carried out according to the Laboratory Animal Care Guidelines of Samjin Pharmaceutical Co., Ltd.
The mice were acclimated to the housing facility for 1 week, and then 0.1 mL of a cell suspension containing 1×10^7 cells was injected subcutaneously into the right flank of each mouse. After cell transplantation, the volume of the formed tumor was measured, and mice with formed tumors having a volume of 150 mm^3 or more were randomly divided into groups (each consisting of 7 to 8 animals) for treatment with the test compounds and a control. […] Administration of the drugs was continued for 14 days. […] At 3-day intervals from the starting day of the administration, the long axis and short axis of the tumor were measured with digital vernier calipers, and the tumor volume was calculated using the following equation and recorded: Tumor volume (TV)=Long axis×short axis^2/2.
Tumor growth inhibition for absolute tumor volume was calculated using the following equation. In the following equation, V0 is the tumor volume on the first day of drug administration (day 0), and Vt is the tumor volume after last drug administration.

[4] = test system: LS513 human colorectal cancer cell line xenograft; assay: as above; format: in vivo, Balb/c nu/nu nude mice; conditions: oral

SMILES: O=C(Nc1ccc(F)c(Nc2ncccc2-c2ncnc3[nH]cnc23)c1F)c1cccc(C(F)(F)F)c1 [Example 1, N-(3-(3-(9H-purin-6-yl)pyridin-2-ylamino)-2,4-difluorophenyl)-3-(trifluoromethyl)benzamide]
- IC50 (B-Raf): 34 nM
- IC50 (B-Raf V600E): 16 nM
- IC50 (C-Raf): 23 nM
- IC50 [1]: 95 nM
- IC50 [2]: 101 nM
- IC50 (HUVEC (VEGF)): 22 nM
- IC50 (LS513 KRAS G12V (colon); Table 4): 1180 nM
- IC50 (LS513 KRAS G12V (colon); Table 5): 278 nM
- IC50 (SW620 KRAS G12V (colon)): 849 nM
- IC50 (WiDR BRAF V600E (colon)): 115 nM

SMILES: CC(C)(C#N)c1cc(F)cc(C(=O)Nc2cc(Nc3ncccc3-c3ncnc4[nH]cnc34)ccc2F)c1 [Example 33, N-(5-(3-(9H-Purin-6-Yl)Pyridin-2-Ylamino)-2-Fluorophenyl)-3-(2-Cyanopropan-2-Yl)-5-Fluorobenzamide]
- IC50 (B-Raf): 94 nM
- IC50 (B-Raf V600E): 33 nM
- IC50 (C-Raf): 24 nM
- IC50 (LS513 KRAS G12V (colon); Table 4): 199 nM
- antitumor effect (tumor growth inhibition) compared to the vehicle control [3]: 96.0%

SMILES: Cc1cn(-c2cc(NC(=O)Nc3ccc(F)c(Nc4ncccc4-c4ncnc5[nH]cnc45)c3F)cc(C(F)(F)F)c2)cn1 [Example 59, 1-(3-(3-(9H-Purin-6-Yl)Pyridin-2-Ylamino)-2,4-Difluorophenyl)-3-(3-(4-Methyl-1H-Imidazol-1-Yl)-5-(Trifluoromethyl)Phenyl)Urea]
- IC50 (LS513 KRAS G12V (colon); Table 4): 2140 nM
- antitumor effect (tumor growth inhibition) compared to the vehicle control [3]: 83.51%

SMILES: CCN1CCN(Cc2ccc(NC(=O)Nc3ccc(F)c(Nc4ncccc4-c4ncnc5[nH]cnc45)c3F)cc2C(F)(F)F)CC1 [Example 60, 1-(3-(3-(9H-Purin-6-Yl)Pyridin-2-Ylamino)-2,4-Difluorophenyl)-3-(4-((4-Ethylpiperazin-1-Yl)Methyl)-3-(Trifluoromethyl)Phenyl)Urea]
- IC50 (LS513 KRAS G12V (colon); Table 4): > 10000 nM
- antitumor effect (tumor growth inhibition) compared to the vehicle control [3]: 69.06%

SMILES: COc1cc(C(=O)Nc2cc(Nc3ncccc3-c3ncnc4[nH]cnc34)ccc2F)cc(C(F)(F)F)c1 [Example 63, N-2-Fluoro-5-[3-(9H-Purin-6-Yl)Pyridin-2-Ylamino)Phenyl-3-Methoxy-5-(Trifluoromethyl)Benzamide]
- IC50 (LS513 KRAS G12V (colon); Table 4): 690 nM
- antitumor effect (tumor growth inhibition) compared to the vehicle control [3]: 57.9%

SMILES: O=C(Nc1cc(Nc2ncccc2-c2ncnc3[nH]cnc23)ccc1F)c1cc(C(F)(F)F)cc(C(F)(F)F)c1 [Example 65, N-2-Fluoro-5-[3-(9H-Purin-6-Yl)Pyridin-2-Ylamino)Phenyl-3,5-Bis(Trifluoromethyl)Benzamide]
- IC50 (B-Raf): 331 nM
- IC50 (B-Raf V600E): 187 nM
- IC50 (C-Raf): 257 nM
- IC50 [2]: 208 nM
- IC50 (HUVEC (VEGF)): 850 nM
- IC50 (LS513 KRAS G12V (colon); Table 4): 100 nM
- IC50 (LS513 KRAS G12V (colon); Table 5): 322 nM
- IC50 (SW620 KRAS G12V (colon)): 700 nM
- IC50 (WiDR BRAF V600E (colon)): 247 nM
- antitumor effect (tumor growth inhibition) ([4]; 50 mg/kg, once a day, 13 days): 95.42%

SMILES: O=C(Nc1cc(Nc2ncccc2-c2ncnc3[nH]cnc23)ccc1F)c1cc(Cl)cc(C(F)(F)F)c1 [Example 135, N-5-[(3-(9H-purin-6-yl)pyridin-2-yl)amino]-2-fluorophenyl-3-chloro-5-(trifluoromethyl)benzamide]
- IC50 (B-Raf): 161 nM
- IC50 (B-Raf V600E): 86 nM
- IC50 (C-Raf): 34 nM
- IC50 [2]: 74 nM
- IC50 (HUVEC (VEGF)): 733 nM
- IC50 (LS513 KRAS G12V (colon); Table 4): 80 nM
- IC50 (LS513 KRAS G12V (colon); Table 5): 88 nM
- IC50 (SW620 KRAS G12V (colon)): 317 nM
- IC50 (WiDR BRAF V600E (colon)): 68 nM
- antitumor effect (tumor growth inhibition) ([4]; 12.5 mg/kg, 21 days): 52.36%
- antitumor effect (tumor growth inhibition) ([4]; 25 mg/kg, 21 days): 74.73%
- antitumor effect (tumor growth inhibition) ([4]; 50 mg/kg, 21 days): 86.85%
- antitumor effect (tumor growth inhibition) ([4]; 50 mg/kg, once a day, 13 days): 92.66%

SMILES: Cc1cc(C(=O)Nc2cc(Nc3ncccc3-c3ncnc4[nH]cnc34)ccc2F)cc(C(F)(F)F)c1 [Example 139, N-5-[(3-(9H-purin-6-yl)pyridin-2-yl)amino]-2-fluorophenyl-3-methyl-5-(trifluoromethyl)benzamide]
- IC50 (LS513 KRAS G12V (colon); Table 4): 99 nM
- IC50 (LS513 KRAS G12V (colon); Table 5): 96 nM
- IC50 (WiDR BRAF V600E (colon)): 116 nM
- antitumor effect (tumor growth inhibition) ([4]; 50 mg/kg, once a day, 13 days): 91.04%

SMILES: O=C(Nc1cc(Nc2ncccc2-c2ncnc3[nH]cnc23)ccc1F)c1ccnc(C(F)(F)F)c1 [Example 151, N-5-[(3-(9H-purin-6-yl)pyridin-2-yl)amino]-2-fluorophenyl-2-(trifluoromethyl)isonicotinamide]
- IC50 (LS513 KRAS G12V (colon); Table 4): 350 nM

SMILES: COc1ccc(NC(=O)c2cccc(C(C)(C)C#N)c2)cc1Nc1ncccc1-c1ncnc2[nH]cnc12 [Example 152, N-3-[(3-(9H-purin-6-yl)pyridin-2-yl)amino]-4-methoxyphenyl-3-(2-cyanopropan-2-yl)benzamide]
- IC50 (LS513 KRAS G12V (colon); Table 4): 2960 nM

SMILES: Cc1ccc(NC(=O)c2cccc(C(C)(C)C#N)c2)cc1Nc1ncccc1-c1ncnc2[nH]cnc12 [Example 153, N-3-[(3-(9H-purin-6-yl)pyridin-2-yl)amino]-4-methylphenyl-3-(2-cyanopropan-2-yl)benzamide]
- IC50 (LS513 KRAS G12V (colon); Table 4): 447 nM

SMILES: CC(C)(C#N)c1cc(C(=O)Nc2cc(Nc3ncccc3-c3ncnc4[nH]cnc34)ccc2F)cc(C(F)(F)F)c1 [Example 154, N-5-[(3-(9H-purin-6-yl)pyridin-2-yl)amino]-2-fluorophenyl-3-(2-cyanopropan-2-yl)-5-(trifluoromethyl)benzamide]
- IC50 (LS513 KRAS G12V (colon); Table 4): 326 nM
- IC50 (LS513 KRAS G12V (colon); Table 5): 326 nM
- IC50 (WiDR BRAF V600E (colon)): 97 nM
- antitumor effect (tumor growth inhibition) ([4]; 50 mg/kg, once a day, 13 days): 83.19%

SMILES: Cc1cc(C(=O)Nc2cc(Nc3ncccc3-c3ncnc4[nH]cnc34)ccc2F)cc(C(C)(C)C#N)c1 [Example 155, N-5-[(3-(9H-purin-6-yl)pyridin-2-yl)amino]-2-fluorophenyl-3-(2-cyanopropan-2-yl)-5-methylbenzamide]
- IC50 (LS513 KRAS G12V (colon); Table 4): 145 nM

SMILES: COc1cc(C(=O)Nc2cc(Nc3ncccc3-c3ncnc4[nH]cnc34)ccc2F)c(Br)c(C(C)(C)C#N)c1 [Example 156, N-5-[(3-(9H-purin-6-yl)pyridin-2-yl)amino]-2-fluorophenyl-2-bromo-3-(2-cyanopropan-2-yl)-5-methoxybenzamide]
- IC50 (LS513 KRAS G12V (colon); Table 4): 517 nM

SMILES: N#Cc1cc(C(=O)Nc2cc(Nc3ncccc3-c3ncnc4[nH]cnc34)ccc2F)cc(C(F)(F)F)c1 [Example 157, N-5-[(3-(9H-purin-6-yl)pyridin-2-yl)amino]-2-fluorophenyl-3-cyano-5-(trifluoromethyl)benzamide]
- IC50 (LS513 KRAS G12V (colon); Table 4): 464 nM

SMILES: O=C(Nc1cc(Nc2ncccc2-c2ncnc3[nH]cnc23)ccc1F)c1cc(Br)cc(C(F)(F)F)c1 [Example 158, N-5-[(3-(9H-purin-6-yl)pyridin-2-yl)amino]-2-fluorophenyl-3-bromo-5-(trifluoromethyl)benzamide]
- IC50 (LS513 KRAS G12V (colon); Table 4): 283 nM
